Reference: the supplement of paper PMC10627819

Key:
[1] = tested on: S. aureus DSM 20231; assay: Bliss interaction score (quartile over a dose matrix) (fitness difference); higher = more antagonism (negative = synergy)
Summary of the method: (§1)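 The Bliss score takes observed fitness and subtracts the expected fitness, calculated as a product of single-drug fitness values. Those single-drug values were inferred from the combination data. Fitness is OD595 at entry into stationary phase divided by the plate's robust no-drug mean, capped at 1, and the score is summarised by quartiles across technical, biological and donor/recipient replicates.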

[2] = tested on: B. subtilis 168; assay: as above
Summary of the method: as §1

[3] = tested on: S. aureus Newman; assay: as above
Summary of the method: as §1

[4] = tested on: S. pneumoniae D39V; assay: as above
Summary of the method: as §1

[5] = tested on: S. aureus DSM 20231; assay: fitness (endpoint OD595 vs no drug) (fraction); higher = more growth
Summary of the method: (§2)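 Cultures at OD595 0.01 were dispensed into 384-well plates in TSB, LB Lennox or CY and incubated at 37 °C. Every 30 min for 14 h, OD595 was read and corrected by the first reading. Fitness is the optical density at entry into stationary phase relative to the robust mean of no-drug control wells, capped at 1.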

[6] = tested on: B. subtilis 168; assay: as above
Summary of the method: as §2

[7] = tested on: S. aureus Newman; assay: as above
Summary of the method: as §2

[8] = tested on: S. pneumoniae D39V; assay: as above
Summary of the method: as §2
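For Bliss interaction score (quartile over a dose matrix) in this document: first quartile when negative (synergy) and third quartile when positive (antagonism).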

CCC[C@@H]1C[C@@H](C(=O)N[C@@H]([C@H]2O[C@H](SC)[C@H](O)[C@@H](O)[C@H]2O)[C@H](C)Cl)N(C)C1 [Clindamycin] + CN[C@@H]1[C@H](O)[C@H](NC)[C@H]2O[C@@]3(O)C(=O)C[C@@H](C)O[C@H]3O[C@@H]2[C@H]1O [Spectinomycin]
Settings | Bliss interaction score
[1] | -0.0511
[2] | -0.0853
[3] | -0.147
[4] | 0.0544

one replicate
Settings | fitness
[5], first compound 0.0312 µg/mL, partner 32 µg/mL | 0.105
[5], first compound 0.0312 µg/mL, partner 64 µg/mL | 0.0235
[5], first compound 0.0625 µg/mL, partner 32 µg/mL | 0.0623
[5], first compound 0.0625 µg/mL, partner 64 µg/mL | 0.0291
[5], first compound 0.125 µg/mL, partner 32 µg/mL | 0.0592
[5], first compound 0.125 µg/mL, partner 64 µg/mL | 0.0326
[6], first compound 0.0039 µg/mL, partner 2 µg/mL | 0.988
[6], first compound 0.0039 µg/mL, partner 4 µg/mL | 0.98
[6], first compound 0.0039 µg/mL, partner 8 µg/mL | ≥ 1
[6], first compound 0.0078 µg/mL, partner 2 µg/mL | 0.897
[6], first compound 0.0078 µg/mL, partner 4 µg/mL | 0.898
[6], first compound 0.0078 µg/mL, partner 8 µg/mL | 0.904
[6], first compound 0.0156 µg/mL, partner 2 µg/mL | 0.904
[6], first compound 0.0156 µg/mL, partner 4 µg/mL | 0.903
[6], first compound 0.0156 µg/mL, partner 8 µg/mL | 0.851
[7], first compound 0.0312 µg/mL, partner 32 µg/mL | 0.0927
[7], first compound 0.0312 µg/mL, partner 64 µg/mL | 0.0581
[7], first compound 0.0625 µg/mL, partner 32 µg/mL | 0.0269
[7], first compound 0.0625 µg/mL, partner 64 µg/mL | 0.0621
[7], first compound 0.125 µg/mL, partner 32 µg/mL | 0.0191
[7], first compound 0.125 µg/mL, partner 64 µg/mL | 0.0457
[8], first compound 0.015 µg/mL, partner 4 µg/mL | 0.935
[8], first compound 0.015 µg/mL, partner 8 µg/mL | 0.899
[8], first compound 0.03 µg/mL, partner 4 µg/mL | 0.765
[8], first compound 0.03 µg/mL, partner 8 µg/mL | 0.754
[8], first compound 0.06 µg/mL, partner 4 µg/mL | 0.657
[8], first compound 0.06 µg/mL, partner 8 µg/mL | 0.671

fitness
Settings | partner 2 µg/mL | partner 4 µg/mL | partner 8 µg/mL | partner 16 µg/mL
[5], first compound 0.125 µg/mL | – | 0.0615 | 0.0809 | 0.0399
[6], first compound 0.0625 µg/mL | 0.508 | 0.46 | 0.383 | –
[6], first compound 0.125 µg/mL | 0.37 | 0.365 | 0.251 | –
[6], first compound 0.25 µg/mL | 0.363 | 0.327 | 0.155 | –
[7], first compound 0.0312 µg/mL | – | 0.564 | 0.579 | 0.466
[7], first compound 0.125 µg/mL | – | 0.0748 | 0.109 | 0.0841
[8], first compound 0.0125 µg/mL | – | 0.672 | 0.656 | 0.601
[8], first compound 0.025 µg/mL | – | 0.457 | 0.409 | 0.396
[8], first compound 0.05 µg/mL | – | 0.248 | 0.231 | 0.19

CCC[C@@H]1C[C@@H](C(=O)N[C@@H]([C@H]2O[C@H](SC)[C@H](O)[C@@H](O)[C@H]2O)[C@H](C)Cl)N(C)C1 [Clindamycin] + COc1c(N2C[C@@H]3CCCN[C@@H]3C2)c(F)cc2c(=O)c(C(=O)O)cn(C3CC3)c12 [Moxifloxacin]
Settings | Bliss interaction score
[1] | 0.0751
[2] | 0.041
[3] | 0.0705
[4] | 0.0859

fitness, one replicate
Settings | first compound 0.0039 µg/mL | first compound 0.0078 µg/mL | first compound 0.0156 µg/mL | first compound 0.0312 µg/mL | first compound 0.0625 µg/mL | first compound 0.125 µg/mL
[5], partner 0.06 µg/mL | – | – | – | 0.628 | 0.628 | 0.109
[5], partner 0.12 µg/mL | – | – | – | 0.515 | 0.516 | 0.0784
[6], partner 0.0312 µg/mL | 0.73 | 0.575 | 0.5 | – | – | –
[6], partner 0.0625 µg/mL | 0.061 | 0.05 | 0.0579 | – | – | –
[6], partner 0.125 µg/mL | 0.0192 | 0.0118 | 0.0291 | – | – | –

Settings | fitness
[5], first compound 0.0625 µg/mL, partner 0.0075 µg/mL | 0.0874
[5], first compound 0.0625 µg/mL, partner 0.015 µg/mL | 0.0867
[5], first compound 0.125 µg/mL, partner 0.0075 µg/mL | 0.0621
[5], first compound 0.125 µg/mL, partner 0.015 µg/mL | 0.0276
[5], first compound 0.125 µg/mL, partner 0.03 µg/mL | 0.0423
[6], first compound 0.0625 µg/mL, partner 0.0312 µg/mL | 0.0693
[6], first compound 0.0625 µg/mL, partner 0.0625 µg/mL | 0.0631
[6], first compound 0.0625 µg/mL, partner 0.125 µg/mL | 0.046
[6], first compound 0.0625 µg/mL, partner 2 µg/mL | 0.0362
[6], first compound 0.0625 µg/mL, partner 4 µg/mL | 0.0401
[6], first compound 0.0625 µg/mL, partner 8 µg/mL | 0.0456
[6], first compound 0.125 µg/mL, partner 0.0312 µg/mL | 0.0619
[6], first compound 0.125 µg/mL, partner 0.0625 µg/mL | 0.0693
[6], first compound 0.125 µg/mL, partner 0.125 µg/mL | 0.0534
[6], first compound 0.125 µg/mL, partner 2 µg/mL | 0.0368
[6], first compound 0.125 µg/mL, partner 4 µg/mL | 0.0309
[6], first compound 0.125 µg/mL, partner 8 µg/mL | 0.0299
[6], first compound 0.25 µg/mL, partner 0.0312 µg/mL | 0.0478
[6], first compound 0.25 µg/mL, partner 0.0625 µg/mL | 0.0597
[6], first compound 0.25 µg/mL, partner 0.125 µg/mL | 0.0484
[6], first compound 0.25 µg/mL, partner 2 µg/mL | 0.0444
[6], first compound 0.25 µg/mL, partner 4 µg/mL | 0.0401
[6], first compound 0.25 µg/mL, partner 8 µg/mL | 0.0192
[7], first compound 0.0312 µg/mL, partner 0.0075 µg/mL | 0.63
[7], first compound 0.0312 µg/mL, partner 0.015 µg/mL | 0.553
[7], first compound 0.0625 µg/mL, partner 0.015 µg/mL | 0.361
[7], first compound 0.0625 µg/mL, partner 0.03 µg/mL | 0.251
[7], first compound 0.125 µg/mL, partner 0.0075 µg/mL | 0.111
[7], first compound 0.125 µg/mL, partner 0.015 µg/mL | 0.0621
[7], first compound 0.125 µg/mL, partner 0.03 µg/mL | 0.0456
[8], first compound 0.0125 µg/mL, partner 0.0312 µg/mL | 0.182
[8], first compound 0.0125 µg/mL, partner 0.0625 µg/mL | 0.0996
[8], first compound 0.0125 µg/mL, partner 0.125 µg/mL | 0.0702
[8], first compound 0.015 µg/mL, partner 0.005 µg/mL | 0.87
[8], first compound 0.015 µg/mL, partner 0.01 µg/mL | 0.932
[8], first compound 0.015 µg/mL, partner 0.02 µg/mL | 0.88
[8], first compound 0.025 µg/mL, partner 0.0312 µg/mL | 0.13
[8], first compound 0.025 µg/mL, partner 0.0625 µg/mL | 0.107
[8], first compound 0.025 µg/mL, partner 0.125 µg/mL | 0.067
[8], first compound 0.03 µg/mL, partner 0.005 µg/mL | 0.778
[8], first compound 0.03 µg/mL, partner 0.01 µg/mL | 0.798
[8], first compound 0.03 µg/mL, partner 0.02 µg/mL | 0.744
[8], first compound 0.05 µg/mL, partner 0.0312 µg/mL | 0.0658
[8], first compound 0.05 µg/mL, partner 0.0625 µg/mL | 0.0748
[8], first compound 0.05 µg/mL, partner 0.125 µg/mL | 0.0719
[8], first compound 0.06 µg/mL, partner 0.005 µg/mL | 0.627
[8], first compound 0.06 µg/mL, partner 0.01 µg/mL | 0.674
[8], first compound 0.06 µg/mL, partner 0.02 µg/mL | 0.606
